Values of other authors as cited in patent US20050118222A1, “Product to combat ticks and the process for the product's preparation” (priority 2002, published 2005).

Assays:
[1] = in vivo
[2] = test system: manure-processing insect and coleopterous flora in the soil

(4″R)-4″-epi(Acetylamino)-4″-deoxyavermectin B1 [Eprinomectin]
applied drug eliminated through the milk (in vivo): 0.1% | elimination through the milk, times less compared to ivermectin or moxidectin (versus ivermectin or moxidectin): 50 times | elimination through dung [1]: 85% | effect on manure-processing insect and coleopterous flora in the soil [2]: does not affect
